PubChem BioAssay (NCI)
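The compound was tested at five concentrations on cells cultured in 96-well plates, with a 48-hour exposure period. Abbreviation: GI50, concentration required for 50% inhibition of growth. TGI is the concentration that stops growth completely.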

What was measured:
Test in all cases: growth of human tumour cells (NCI), 48 h
786-0 renal = tested on: 786-0 renal
A498 renal = tested on: A498 renal
A549 NSCLC = tested on: A549 NSCLC
ACHN renal = tested on: ACHN renal
BT-549 breast = tested on: BT-549 breast
CAKI-1 renal = tested on: CAKI-1 renal
CCRF-CEM leukemia = tested on: CCRF-CEM leukemia
COLO 205 colon = tested on: COLO 205 colon
DU-145 prostate = tested on: DU-145 prostate
EKVX NSCLC = tested on: EKVX NSCLC
HCC-2998 colon = tested on: HCC-2998 colon
HCT-116 colon = tested on: HCT-116 colon
HL-60(TB) leukemia = tested on: HL-60(TB) leukemia
HOP-62 NSCLC = tested on: HOP-62 NSCLC
HOP-92 NSCLC = tested on: HOP-92 NSCLC
HS 578T breast = tested on: HS 578T breast
HT29 colon = tested on: HT29 colon
IGROV1 ovarian = tested on: IGROV1 ovarian
K-562 leukemia = tested on: K-562 leukemia
KM12 colon = tested on: KM12 colon
M14 melanoma = tested on: M14 melanoma
MALME-3M melanoma = tested on: MALME-3M melanoma
MCF7 breast = tested on: MCF7 breast
MDA-MB-231 breast = tested on: MDA-MB-231 breast
MDA-MB-435 = tested on: MDA-MB-435
MOLT-4 leukemia = tested on: MOLT-4 leukemia
NCI-H226 lung = tested on: NCI-H226 lung

Question: For `C#C[C@]1(O)CC[C@H]2[C@@H]3CC=C4c5sc(Nc6cc(OC)ccc6OC)nc5CC[C@]4(C)[C@H]3CC[C@@]21C`, which GI50 (786-0 renal) is on record?
Answer: Its GI50 is 0.392 µM.

Question: And the TGI (786-0 renal)?
Answer: Its TGI is 5.08 µM.

Question: What about the GI50 (A498 renal) of the same compound?
Answer: Its GI50 is 0.429 µM.

Question: And the TGI (A498 renal)?
Answer: Its TGI is 4.62 µM.

Question: What about the GI50 (A549 NSCLC) of the same compound?
Answer: Its GI50 is 3.1 µM.

Question: What about the TGI (A549 NSCLC) of the same compound?
Answer: The TGI was 95.7 µM.

Question: What about the GI50 (ACHN renal) of the same compound?
Answer: Its GI50 is 1.9 µM.

Question: And the TGI (ACHN renal)?
Answer: The TGI was 16.5 µM.

Question: And the GI50 (BT-549 breast)?
Answer: Its GI50 is 0.61 µM.

Question: And the TGI (BT-549 breast)?
Answer: The TGI was 7.03 µM.

Question: What about the GI50 (CAKI-1 renal) of the same compound?
Answer: Its GI50 is 1.11 µM.

Question: What about the TGI (CAKI-1 renal) of the same compound?
Answer: The TGI was 4.68 µM.

Question: What about the GI50 (CCRF-CEM leukemia) of the same compound?
Answer: The GI50 was 0.619 µM.

Question: And the TGI (CCRF-CEM leukemia)?
Answer: The TGI was greater than 100 µM.

Question: What about the GI50 (COLO 205 colon) of the same compound?
Answer: The GI50 was 2.43 µM.

Question: And the TGI (COLO 205 colon)?
Answer: Its TGI is 7.83 µM.

Question: And the GI50 (DU-145 prostate)?
Answer: The GI50 was 1.91 µM.

Question: What about the TGI (DU-145 prostate) of the same compound?
Answer: Its TGI is 7.47 µM.

Question: And the GI50 (EKVX NSCLC)?
Answer: The GI50 was 2.86 µM.

Question: What about the TGI (EKVX NSCLC) of the same compound?
Answer: The TGI was 42.5 µM.

Question: And the GI50 (HCC-2998 colon)?
Answer: Its GI50 is 4.11 µM.

Question: And the TGI (HCC-2998 colon)?
Answer: The TGI was 23.2 µM.

Question: And the GI50 (HCT-116 colon)?
Answer: The GI50 was 1.12 µM.

Question: And the TGI (HCT-116 colon)?
Answer: Its TGI is 2.77 µM.

Question: What about the GI50 (HL-60(TB) leukemia) of the same compound?
Answer: Its GI50 is 0.646 µM.

Question: What about the TGI (HL-60(TB) leukemia) of the same compound?
Answer: Its TGI is 4.07 µM.

Question: And the GI50 (HOP-62 NSCLC)?
Answer: The GI50 was 1.96 µM.

Question: What about the TGI (HOP-62 NSCLC) of the same compound?
Answer: The TGI was 47.9 µM.

Question: What about the GI50 (HOP-92 NSCLC) of the same compound?
Answer: Its GI50 is 4.66 µM.

Question: And the TGI (HOP-92 NSCLC)?
Answer: Its TGI is 74.7 µM.

Question: What about the GI50 (HS 578T breast) of the same compound?
Answer: Its GI50 is 0.202 µM.

Question: What about the TGI (HS 578T breast) of the same compound?
Answer: Its TGI is 0.597 µM.

Question: And the GI50 (HT29 colon)?
Answer: Its GI50 is 1.8 µM.

Question: What about the TGI (HT29 colon) of the same compound?
Answer: Its TGI is greater than 100 µM.

Question: And the GI50 (IGROV1 ovarian)?
Answer: Its GI50 is 2.93 µM.

Question: And the TGI (IGROV1 ovarian)?
Answer: Its TGI is 25 µM.

Question: What about the GI50 (K-562 leukemia) of the same compound?
Answer: The GI50 was 0.553 µM.

Question: And the TGI (K-562 leukemia)?
Answer: Its TGI is greater than 100 µM.

Question: And the GI50 (KM12 colon)?
Answer: The GI50 was 2.33 µM.

Question: And the TGI (KM12 colon)?
Answer: Its TGI is 11 µM.

Question: And the GI50 (M14 melanoma)?
Answer: The GI50 was 1.04 µM.

Question: And the TGI (M14 melanoma)?
Answer: Its TGI is 4.08 µM.

Question: And the GI50 (MALME-3M melanoma)?
Answer: Its GI50 is 1.69 µM.

Question: What about the TGI (MALME-3M melanoma) of the same compound?
Answer: The TGI was 8.76 µM.

Question: What about the GI50 (MCF7 breast) of the same compound?
Answer: The GI50 was 0.454 µM.

Question: What about the TGI (MCF7 breast) of the same compound?
Answer: The TGI was 1.74 µM.

Question: And the GI50 (MDA-MB-231 breast)?
Answer: The GI50 was 2.36 µM.

Question: And the TGI (MDA-MB-231 breast)?
Answer: The TGI was greater than 100 µM.

Question: What about the GI50 (MDA-MB-435) of the same compound?
Answer: Its GI50 is 2.79 µM.

Question: And the TGI (MDA-MB-435)?
Answer: Its TGI is 19.2 µM.

Question: And the GI50 (MOLT-4 leukemia)?
Answer: The GI50 was 0.367 µM.

Question: What about the TGI (MOLT-4 leukemia) of the same compound?
Answer: The TGI was 16.2 µM.

Question: What about the GI50 (NCI-H226 lung) of the same compound?
Answer: Its GI50 is 3.04 µM.
